# Laboratory results published in patent US6127136A, “Detection of dioxin-like compounds by detection of transformed Ah receptor/ARNT complex” (Paracelsian, Inc., priority 1996, dated 2000).
# “And” between values parts separate entries of the source, which are not always exact repeats. Identical values can stand only once.
# Tests used:
# [1] = biological target: T1, transformed Ah receptor/ARNT complex (Cavia porcellus, UniProt Q6J287); test: mini-Ah immunoassay with anti-ARNT detection of transformed Ah receptor/ARNT complex; assay type: biochemical, guinea pig (male Hartley, hepatic cytosol); design: AHR/ARNT heterodimer on DRE gel, anti-ARNT detection; in some samples recombinant baculovirus ARNT (Bradfield) added; conditions: for density, average / density: TCDD (+); for density: single replicate
# Experimental: Male Hartley guinea pigs weighing 300-350 g were obtained from Cornell Research Animal Resources, Cornell University, Ithaca, N.Y. Guinea pigs were anaesthetized and killed with carbon dioxide. Livers were perfused in situ with 100 mL ice-cold perfusion buffer, excised, trimmed of connective tissue, poorly perfused liver and gall bladder and weighed. The liver was minced and five mL of ice-cold HEDG per gram liver were added and the whole homogenized in a 50 mL homogenizer with teflon pestle using at 200 rpm for a total of seven strokes. Crude homogenate was centrifuged at 12,500 RPM in 50 mL tubes in a JA17 rotor in a Beckman J2-MI preparative centifuge at 4 degrees C for 20 minutes.
# For a typical mini-Ah immunoassay utilizing 12 samples, 5 mL of Transformed Ah Receptor Affinity Gel slurry described above was pipeted into a 50 mL conical tube. The slurry was washed with 40 mL HEDG and centifuged at 1000 g for 5 min, the supernatant withdrawn and discarded, the pellet washed with 40 mL HEDG, and centrifuged again. After the second centrifugation all but 5 mL of supernatant was withdrawn and the gel thus resuspended in the original volume. 10 mL guinea pig hepatic cytosol was thawed. The thawed cytosol was pooled and then divided into two 5 mL groups and treated with either 5 uL DMSO or 5 uL 10 uM TCDD in DMSO.
# Assembly of transformation mixture:In the preferred embodiment of the mini-Ah immunoassay, each sample was composed of one 1.5 mL microfuge tube with the following sequential additions: 90 uL 4 M NaCl/HEDG, 400 uL Transformed Ah Receptor Affinity Gel slurry and 800 uL cytosol (treated with DMSO or TCDD as described above). The three components described above are the minimum components added at that step of the mini-Ah immunoassay. Any additional materials, such as ARNT, anti-ARNT and anti-Rabbit/alkaline phosphatase conjugate, were sometimes also added at this time as described in the specific examples. After assembly of the samples, the tubes were capped and the samples incubated at room temperature for 2 hours with gentle rocking to allow transformation of the Ah receptor to take place, interaction of transformed Ah receptor and ARNT, and binding of the transformed Ah receptor as a heteromer to the DRE oligonucleotide contained on the Transformed Ah Receptor Affinity Gel.
# Immunoprobing of transformed Ah receptor: The nitrocellulose membrane was then removed from the ELIFA apparatus, rinsed briefly with water, and placed in 20 mL blocker containing test antibody. All antibodies were incubated with the nitrocellulose membrane for one hour at room temperature. When the test antibody was anti-Ah receptor/alkaine phosphatase conjugate, 100 uL anti-Ah receptor/alkaline phosphatase conjugate (1:200), per 20 mL blocker was used. When anti-ARNT was added to the transformation mixture, anti-Rabbit/alkaline phosphatase conjugate (Sigma, St. Louis, Mo.) diluted 1:1000 (20 uL to 20 mL blocker) was used to probe the membrane. When ARNT, anti-ARNT and anti-Rabbit or anti-ARNT and anti-Rabbit was added to the transformation mixture, the Immunoprobing step was eliminated.
# Immunodetection and densitometry: In all cases the nitrocellulose membrane was rinsed prior to immunodetection 3 times for 5 min each with 100 mL TBST, briefly washed in AP development buffer and developed in freshly made BCIP/NBT developer for 5 min, whereupon the color reaction was stopped by washing the membrane in water.
# Quantitative data were obtained by scanning the dried membrane in a Microtek 600ZS scanner in gray scale, 300 dpi, 0% brightness, 0% contrast. Densitometric measurements of the dot-blots were made using ScanAnalysis software (Biosoft, Cambridge U.K.).
# Cytosol and DRE affinity gel are prepared as described above. Cytosol is dosed with 1:1000 v/v DMSO (-) or 1:1000 v/v 10 uM 2,3,7,8-tetrachlorodibenzo-p-dioxin in DMSO (+).
# Immunoprobing of transformed Ah receptor is as described above with the following probes. […]
# Target sequence in this assay (Q6J287 10-846): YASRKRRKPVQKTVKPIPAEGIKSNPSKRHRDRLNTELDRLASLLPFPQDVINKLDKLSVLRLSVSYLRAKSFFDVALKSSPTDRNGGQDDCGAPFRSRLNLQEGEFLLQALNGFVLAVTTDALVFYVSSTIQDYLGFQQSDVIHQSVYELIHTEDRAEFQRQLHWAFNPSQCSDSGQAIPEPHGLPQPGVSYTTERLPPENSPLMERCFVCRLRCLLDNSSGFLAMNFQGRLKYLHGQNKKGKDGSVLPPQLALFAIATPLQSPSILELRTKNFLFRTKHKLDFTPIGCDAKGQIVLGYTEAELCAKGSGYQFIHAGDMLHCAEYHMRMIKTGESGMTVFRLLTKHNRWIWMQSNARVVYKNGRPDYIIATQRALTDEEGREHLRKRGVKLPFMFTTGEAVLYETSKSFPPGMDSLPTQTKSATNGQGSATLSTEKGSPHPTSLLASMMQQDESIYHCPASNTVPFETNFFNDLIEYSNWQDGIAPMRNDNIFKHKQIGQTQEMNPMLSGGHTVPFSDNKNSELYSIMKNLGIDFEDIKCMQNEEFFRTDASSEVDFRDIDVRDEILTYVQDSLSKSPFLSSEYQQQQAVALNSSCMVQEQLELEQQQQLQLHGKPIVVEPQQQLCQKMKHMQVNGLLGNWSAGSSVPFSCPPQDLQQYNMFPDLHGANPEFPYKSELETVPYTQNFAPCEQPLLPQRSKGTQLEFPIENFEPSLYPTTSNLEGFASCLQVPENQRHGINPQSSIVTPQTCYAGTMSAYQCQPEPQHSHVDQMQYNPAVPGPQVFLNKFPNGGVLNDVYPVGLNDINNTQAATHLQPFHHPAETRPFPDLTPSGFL
# Target sequence in this assay (Q0WXX3 1-790 partner): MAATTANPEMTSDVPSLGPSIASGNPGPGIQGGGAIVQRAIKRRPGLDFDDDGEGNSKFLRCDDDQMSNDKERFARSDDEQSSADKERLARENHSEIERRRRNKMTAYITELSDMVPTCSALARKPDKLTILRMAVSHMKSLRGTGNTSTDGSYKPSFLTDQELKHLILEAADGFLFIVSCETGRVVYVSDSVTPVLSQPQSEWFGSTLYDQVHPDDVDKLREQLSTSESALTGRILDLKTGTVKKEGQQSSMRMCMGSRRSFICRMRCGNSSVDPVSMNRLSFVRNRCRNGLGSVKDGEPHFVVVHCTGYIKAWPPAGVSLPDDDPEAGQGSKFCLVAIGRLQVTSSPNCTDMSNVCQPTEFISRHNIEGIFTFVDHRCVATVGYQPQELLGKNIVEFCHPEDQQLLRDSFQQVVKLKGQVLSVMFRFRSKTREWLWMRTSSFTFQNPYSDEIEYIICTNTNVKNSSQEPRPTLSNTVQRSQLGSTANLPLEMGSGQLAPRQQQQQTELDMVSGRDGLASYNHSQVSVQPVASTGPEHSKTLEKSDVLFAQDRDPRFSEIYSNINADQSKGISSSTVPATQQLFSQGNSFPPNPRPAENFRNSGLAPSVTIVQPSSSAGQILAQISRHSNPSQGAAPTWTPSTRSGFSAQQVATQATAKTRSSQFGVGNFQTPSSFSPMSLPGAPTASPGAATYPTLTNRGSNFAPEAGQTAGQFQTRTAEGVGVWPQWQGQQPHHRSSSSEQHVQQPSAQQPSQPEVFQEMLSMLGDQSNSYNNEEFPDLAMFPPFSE
# Target sequence in this assay (P27540 whole entry partner, the tested form may be a part): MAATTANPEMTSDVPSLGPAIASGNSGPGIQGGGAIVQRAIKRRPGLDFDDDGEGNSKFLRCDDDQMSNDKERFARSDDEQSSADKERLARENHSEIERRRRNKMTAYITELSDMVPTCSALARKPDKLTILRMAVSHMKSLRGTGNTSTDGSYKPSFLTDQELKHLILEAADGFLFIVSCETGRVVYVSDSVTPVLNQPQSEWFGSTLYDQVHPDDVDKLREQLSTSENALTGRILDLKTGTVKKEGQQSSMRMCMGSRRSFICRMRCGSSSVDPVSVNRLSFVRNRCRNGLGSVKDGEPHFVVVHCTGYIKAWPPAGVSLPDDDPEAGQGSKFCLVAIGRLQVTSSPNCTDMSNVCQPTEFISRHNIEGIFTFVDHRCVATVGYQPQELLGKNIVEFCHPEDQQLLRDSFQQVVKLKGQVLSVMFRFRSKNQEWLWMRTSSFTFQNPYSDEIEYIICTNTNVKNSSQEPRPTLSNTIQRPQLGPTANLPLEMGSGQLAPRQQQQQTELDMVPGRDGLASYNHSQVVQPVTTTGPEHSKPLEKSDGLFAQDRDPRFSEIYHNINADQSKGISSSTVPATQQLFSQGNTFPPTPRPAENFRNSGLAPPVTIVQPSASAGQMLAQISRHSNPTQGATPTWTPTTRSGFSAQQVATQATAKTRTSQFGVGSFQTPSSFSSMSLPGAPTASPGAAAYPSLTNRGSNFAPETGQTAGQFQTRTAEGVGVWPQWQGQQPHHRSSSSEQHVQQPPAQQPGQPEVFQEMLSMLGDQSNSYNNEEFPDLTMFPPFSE
# [2] = biological target: T1, transformed Ah receptor/ARNT complex; test: Ah-ELISA dose response using an amplified detection system; assay type: biochemical, guinea pig (hepatic cytosol); design: from tissue; host or cells: hepatic cytosol of male Hartley guinea pigs (animals from Cornell Research Animal Resources); conditions: for Average Optical Density: 490 nm, amplified, 28 minutes
# Experimental: The reagents and ELISA plate were prepared as described in Example 9 with an amplified detection system. The TCDD concentration was varied tested at 0, 0.016, 0.031, 0.063, 0.125, 0.25, 0.5, 1.0, 2.0, and 4.0 nM.
# The amplified detection system used was the alkaline phosphatase/NADP system published by Johannson et al. (J IMM Meth 87: 7-11, 1986). This system is sold as a kit under the trademark Ampak™ by DAKO.
# 2x enzyme stock was made by dissolving 8 mg alcohol dehydrogenase, 1.4 mg Diaphorase, 133 mg bovine serum albumin in 40 ml AMP buffer (2.3 g 85% HPLC grade phosphoric acid in a total volume of 960 ml water, pH adjusted to 7.2 with 6N NaOH, and 40 ml of ethanol was added to make 1 L). 2x INT stock was made by dissolving 50 mg INT Violet dye in 50 mL AMP buffer.
# After washing the plates, 100 μl of NADP stock (0.837 mg in 10 ml of AP buffer (diethanolamine 50 mM, 1 mM MgCl2, 0.1 mM ZnCl2, 15 mM NaN3, pH 9.5)) was added and allowed to incubate at room temperature for 30 minutes. Sensitivity can be increased by increasing amount of NADP or time of incubation. The 2x enzyme stock and 2x INT stock were mixed and 200 μl of the mixture was added per well. The OD was read at 490 nm (usually read at 1 minute intervals for up to 30 minutes). The results are shown below at 28 minutes.
# Target sequence in this assay (Q6J287 1-846): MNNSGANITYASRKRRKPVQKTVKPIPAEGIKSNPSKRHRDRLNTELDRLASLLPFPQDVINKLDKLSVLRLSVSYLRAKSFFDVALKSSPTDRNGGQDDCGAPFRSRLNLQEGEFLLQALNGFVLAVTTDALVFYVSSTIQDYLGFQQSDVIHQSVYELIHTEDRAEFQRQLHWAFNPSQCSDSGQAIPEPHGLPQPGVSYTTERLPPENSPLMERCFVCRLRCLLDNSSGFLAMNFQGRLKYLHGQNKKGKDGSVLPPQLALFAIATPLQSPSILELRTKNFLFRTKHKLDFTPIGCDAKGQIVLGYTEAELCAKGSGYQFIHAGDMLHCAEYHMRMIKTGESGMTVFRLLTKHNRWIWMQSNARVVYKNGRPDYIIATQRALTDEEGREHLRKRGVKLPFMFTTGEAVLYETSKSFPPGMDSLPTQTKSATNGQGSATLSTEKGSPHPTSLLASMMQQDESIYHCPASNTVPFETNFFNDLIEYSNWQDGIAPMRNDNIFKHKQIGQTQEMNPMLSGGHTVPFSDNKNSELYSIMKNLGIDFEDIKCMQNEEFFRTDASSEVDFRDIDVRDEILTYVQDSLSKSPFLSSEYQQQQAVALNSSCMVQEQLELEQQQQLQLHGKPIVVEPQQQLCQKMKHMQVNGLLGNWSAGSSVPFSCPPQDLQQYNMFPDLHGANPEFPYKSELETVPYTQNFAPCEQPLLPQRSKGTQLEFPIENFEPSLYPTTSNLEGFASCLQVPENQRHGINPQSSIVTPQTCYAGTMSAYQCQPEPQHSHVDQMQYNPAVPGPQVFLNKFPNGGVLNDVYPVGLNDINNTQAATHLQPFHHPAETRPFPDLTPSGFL
# Target sequence in this assay (Q0WXX3 1-790 partner): as the sequence (Q0WXX3 1-790 partner) above
# [3] = Example 3, 220 ng anti-ARNT spike
# [4] = Example 3, 660 ng anti-ARNT spike
# [5] = Example 4, ARNT/anti-ARNT/anti-rabbit
# [6] = Example 4, anti-ARNT/anti-rabbit, no ARNT added
# [7] = Example 4, codes 1-4 (ARNT 2 ug, anti-ARNT 2 uL)
smiles,measurement,setting,value
"Clc1cc2c(cc1Cl)Oc1cc(Cl)c(Cl)cc1O2 [TCDD, 2,3,7,8-tetrachlorodibenzo-p-dioxin]","density, difference TCDD treated (+) minus DMSO treated (-)",[1]; [3],185901
same,"density, average","[1]; Example 3, 220 ng anti-ARNT spike, average of two replicates",205498
same,density,[1]; [3],191233 and 219762
same,"density, difference TCDD treated (+) minus DMSO treated (-)",[1]; [4],189840
same,"density, average","[1]; Example 3, 660 ng anti-ARNT spike, average of two replicates",261285
same,density,[1]; [4],231412 and 291157
same,"density, difference",[1]; [5],76074
same,density,"[1]; Example 4, ARNT/anti-ARNT/anti-rabbit in mixture",85215 and 80175
same,"density, average",[1]; [5],82695
same,"density, difference",[1]; [6],33501
same,density,[1]; [6],36309
same,"density, average","[1]; Example 4, anti-ARNT/anti-rabbit, no ARNT added, second replicate lost",36309
same,"density, difference",[1]; [7],235535
same,"density, average",[1]; [7],244132
same,density,"[1]; Example 4, codes 1-4 (ARNT 2 ug, anti-ARNT 2 uL; printed Normal)",233321 and 254942
same,Average Optical Density,[2]; 0.016 nM TCDD,0.203
same,Average Optical Density,[2]; 0.031 nM TCDD,0.228
same,Average Optical Density,[2]; 0.063 nM TCDD,0.293
same,Average Optical Density,[2]; 0.125 nM TCDD,0.414
same,Average Optical Density,[2]; 0.25 nM TCDD,0.675
same,Average Optical Density,[2]; 0.5 nM TCDD,1.036
same,Average Optical Density,[2]; 1 nM TCDD,1.421
same,Average Optical Density,[2]; 2 nM TCDD,1.803
same,Average Optical Density,[2]; 4 nM TCDD,1.844
same,EC50,"[2]; amplified detection, FIG. 7",~0.248 nM
